From US12637498B2, “PDLIM2 as a biomarker for cancer and as an anti-cancer treatment target” (UNIVERSITY OF PITTSBURGH—OF THE COMMONWEALTH SYSTEM OF …, priority 2019, dated 2026)
Entries after “also recorded” stand apart in the source; their conditions may differ.

Assays:
PDLIM2 [1] = assay: qPCR analysis of PDLIM2 expression in human lung cancer cell lines; type: cell-based
PDLIM2 [2] = assay: qPCR analysis of PDLIM2 in mouse MAD109 lung cancer cells; type: cell-based
PDLIM2 [3] = assay: IHC staining of PDLIM2 in mouse lung tumors and tissues (urethane model); type: in vivo
Description: (§1) Urethane model: 6-8-week-old mice under FVB/N background were intraperitoneally (i.p.) injected with urethane (1 g/kg body weight, Sigma-Aldrich, St. Louis, MO, USA) once a week for six weeks. All mice were sacrificed for lung tumor examinations seven (for no drug treatment experiments) or six (for drug treatment experiments) weeks post urethane treatment. For drug treatment experiments, the epigenetic agents 5-aza-dC (1 mg/kg body weight, Sigma-Aldrich, St. Louis, MO, USA) and MS-275 (1 mg/kg body weight, Selleckchem, Houston, TX, USA), chemotherapeutic drugs carboplatin (30 mg/kg body weight, AdipoGen, San Diego, CA, USA) and paclitaxel (15 mg/kg body weight, AdipoGen, San Diego, CA, USA), and/or PD-1 neutralizing antibody (200 μg/mouse, BioXCell, West Lebanon, NH, USA) were i.p injected as indicated in FIG. 4. Surface tumors in mouse lungs were counted by three blinded readers under a dissecting microscope, and tumor diameters were measured by microcalipers. K-Ras^G12D model: 6-8-week-old mice under FVB/N background were intranasally administered 1×10^7 plaque-forming units of Cre-expressing adenovirus (adenocre; Gene Transfer Vector Core, University of Iowa, Iowa City, IA). Three months post AdenoCre treatment, all mice were sacrificed for lung tumor examinations.
Mouse or tissues were excised, fixed in formalin, embedded in paraffin, and cut into 4-pm-thick sections. […]

[4] = test system: lung cancer induced by urethane; assay: Urethane model of lung cancer, tumor examination; type: in vivo, mouse; details: ΔSPC mice (lung epithelial PDLIM2 deletion), 5-aza-dC and MS275 combination therapy (Epi)
Description: as §1
PDLIM2flx/flx/SP-C-rtTAtg/−/(tetO)7CMV-Cretg/tg (ΔSPC) mice under a pure FVB/N background and PDLIM2−/− mice under a pure BABL/C background have been described before (Sun et al., Nat. Commun. 2019. 10, 5324). For lung carcinogenesis, six to eight week old ΔSPC and wild type FVB/N mice were intraperitoneally (i.p.) injected with urethane (1 mg/g body weight, Sigma-Aldrich, St. Louis, MO, USA) once a week for six consecutive weeks, followed by different treatment as shown in FIGS. 45A and 49A. Mice were sacrificed for lung inflammation and tumor examinations at six weeks post urethane treatment. Surface tumors in mouse lungs were counted blinded under a dissecting microscope, and tumor diameters were measured by microcalipers. […]

human lung cancer cells = assay: Cell growth assays; type: cell-based; details: human lung cancer cells with PDLIM2 knockdown (shRNA), in vitro
Description: Cells were seeded into 12-well plates at a density of 5,000 cells per well, in the presence or absence of the indicated treatment. Cell density was determined by replacing the medium with 2 μmol/L of calcein AM in 1× dissociation solution (Trevigen) at the indicated time points. After 1 h of incubation, diesterase activity (relative fluorescence units) was measured with a Tecan Infinite 200 Microplate Reader, using an excitation wavelength of 485 nm and emission wavelength of 520 nm.

PD-L1 [5] = assay: qPCR of PD-L1 in lung cancer cells; type: cell-based, human; details: lung cancer cells
Excerpt: Mouse lung tissues and BAL cells were subjected to RNA extraction, RNA reverse transcription and real-time PCR as described (Li et al., Oncoimmunology 7, e1435250 (2018); Sun et al., Bio. Protoc. 7, pii: e2287 (2017)).

PD-L1 [6] = assay: IHC staining of PD-L1 in lung cancer (urethane model); type: in vivo, mouse; details: 5-aza-dC and MS-275 together
Description: as §1
Mouse or tissues were excised, fixed in formalin, embedded in paraffin, and cut into […] sections. Sections were stained with H&E, or subjected to sequential incubations with different primary antibodies and peroxidase-conjugated goat anti-rabbit secondary antibodies. The human lung tumor tissue arrays were described previously (Sun et al., Oncogene 35, 2299-2310 (2016)).
Lung tissues were excised, fixed in formalin, embedded in paraffin, and cut into 4-μm-thick sections. Sections were stained with H&E, or subjected to sequential incubations with the indicated primary antibodies, biotinylated secondary antibodies and streptavidin-HRP.

[7] = Toxicity: animal body weight and H&E staining of major organs; type: in vivo, mouse; details: mice with lung cancer; 1 mg/kg of 5-aza-dC and MS-275 twice per week for 6 weeks

In the case of `Nc1ccccc1NC(=O)c1ccc(CNC(=O)OCc2cccnc2)cc1` [MS-275, entinostat], the “PDLIM2 expression (qPCR)” value (PDLIM2 [1]; H460 human lung cancer cells) is reported as “PDLIM2 recovery; also recorded: time-dependent induction of PDLIM2”, the “PDLIM2 expression (qPCR)” value (PDLIM2 [1]; human lung cancer cell lines) is reported as “induction of PDLIM2” and the “PDLIM2 expression (qPCR)” value (PDLIM2 [1]; human lung cancer cell lines, listed as MS275) is reported as “induced PDLIM2 re-expression”. The “PDLIM2 expression (qPCR)” value (PDLIM2 [1]; normal human lung epithelial cell line NL-20 with oncogenic K-Ras Q61H mutant) was “PDLIM2 re-induction”, the “PDLIM2 expression (qPCR)” value (PDLIM2 [2]) was “PDLIM2 re-induction” and the “PDLIM2 expression in murine lung cancers” value (PDLIM2 [3]; both in vitro and in vivo) was “could be restored”. For the same compound, the “PDLIM2 expression in mouse lung tumor (IHC staining)” value (PDLIM2 [3]; urethane model, 5-aza-dC and MS-275 (epigenetic drugs) given together) was “PDLIM2 recovery”, the “lung cancer treatment (tumor examination)” value [4] was “completely lost the ability to treat lung cancer; also recorded: complete resistance” and the cell growth (human lung cancer cells) was “protected human lung cancer cells; also recorded: protection of human lung cancer cells”. For the same compound, the “PD-L1 expression (qPCR)” value (PD-L1 [5]) was “PD-L1 induction”, the “PD-L1 expression in lung cancer (IHC staining)” value (PD-L1 [6]) was “PD-L1 induction” and the animal body weight [7] was “body weight loss”.
